Data taken from ChEMBL document CHEMBL1909046, “DrugMatrix in vitro pharmacology data”.

Key:
Vasopressin V1a receptor = Vasopressin V1a receptor (Homo sapiens, UniProt P37288); type: cell membranes, Membrane; details: hek293; also: in other assays of this panel Not Active means under 50% inhibition at 10 µM
Cannabinoid receptor 1 = Cannabinoid receptor 1 (Homo sapiens, UniProt P21554); type: cell membranes, Membrane; details: chem-1; also: in other assays of this panel Not Active means under 50% inhibition at 10 µM
Cannabinoid receptor 1, sequence (P21554 whole entry): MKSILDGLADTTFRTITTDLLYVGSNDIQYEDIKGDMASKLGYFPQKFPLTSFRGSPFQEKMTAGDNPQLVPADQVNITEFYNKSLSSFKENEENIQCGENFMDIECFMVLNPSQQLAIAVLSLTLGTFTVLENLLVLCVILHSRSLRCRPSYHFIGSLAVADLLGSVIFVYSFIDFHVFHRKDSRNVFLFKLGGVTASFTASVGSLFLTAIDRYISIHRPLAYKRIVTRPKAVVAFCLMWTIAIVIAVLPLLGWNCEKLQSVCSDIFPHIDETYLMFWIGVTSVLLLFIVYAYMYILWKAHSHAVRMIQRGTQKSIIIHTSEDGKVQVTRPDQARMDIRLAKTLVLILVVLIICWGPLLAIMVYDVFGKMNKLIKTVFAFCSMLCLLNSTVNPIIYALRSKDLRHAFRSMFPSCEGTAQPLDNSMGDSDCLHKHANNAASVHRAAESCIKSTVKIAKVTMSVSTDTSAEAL

[1] = target: T1, C-C chemokine receptor type 4 (Homo sapiens, UniProt P51679); type: cell membranes, Membrane; details: chem-1; also: in other assays of this panel Not Active means under 50% inhibition at 10 µM
T1 sequence (P51679 whole entry): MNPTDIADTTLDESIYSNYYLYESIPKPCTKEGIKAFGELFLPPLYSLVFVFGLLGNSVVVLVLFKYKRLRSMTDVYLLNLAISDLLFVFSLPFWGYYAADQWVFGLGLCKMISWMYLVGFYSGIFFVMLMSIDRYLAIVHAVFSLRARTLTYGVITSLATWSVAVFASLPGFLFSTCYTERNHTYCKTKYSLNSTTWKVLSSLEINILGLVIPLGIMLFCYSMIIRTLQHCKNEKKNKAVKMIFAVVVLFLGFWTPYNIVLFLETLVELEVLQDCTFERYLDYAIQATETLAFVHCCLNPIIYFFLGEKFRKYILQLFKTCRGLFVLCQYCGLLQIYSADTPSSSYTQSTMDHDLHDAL

[2] = target: C-C chemokine receptor type 5 (Homo sapiens, UniProt P51681); type: cell membranes, Membrane; details: hek293; also: in other assays of this panel Not Active means under 50% inhibition at 10 µM
C-C chemokine receptor type 5, sequence (P51681 whole entry): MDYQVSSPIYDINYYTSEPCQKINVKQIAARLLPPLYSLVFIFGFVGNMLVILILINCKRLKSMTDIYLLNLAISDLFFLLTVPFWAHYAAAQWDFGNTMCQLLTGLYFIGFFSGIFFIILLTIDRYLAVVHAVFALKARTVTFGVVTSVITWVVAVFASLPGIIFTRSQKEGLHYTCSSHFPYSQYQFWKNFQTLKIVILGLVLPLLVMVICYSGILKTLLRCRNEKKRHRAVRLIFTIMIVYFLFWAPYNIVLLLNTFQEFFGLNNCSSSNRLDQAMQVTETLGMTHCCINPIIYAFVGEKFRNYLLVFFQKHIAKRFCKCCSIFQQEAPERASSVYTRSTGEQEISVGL

[3] = target: T2, C-X-C chemokine receptor type 1 (Homo sapiens, UniProt P25024); also: in other assays of this panel Not Active means under 50% inhibition at 10 µM
T2 sequence (P25024 whole entry): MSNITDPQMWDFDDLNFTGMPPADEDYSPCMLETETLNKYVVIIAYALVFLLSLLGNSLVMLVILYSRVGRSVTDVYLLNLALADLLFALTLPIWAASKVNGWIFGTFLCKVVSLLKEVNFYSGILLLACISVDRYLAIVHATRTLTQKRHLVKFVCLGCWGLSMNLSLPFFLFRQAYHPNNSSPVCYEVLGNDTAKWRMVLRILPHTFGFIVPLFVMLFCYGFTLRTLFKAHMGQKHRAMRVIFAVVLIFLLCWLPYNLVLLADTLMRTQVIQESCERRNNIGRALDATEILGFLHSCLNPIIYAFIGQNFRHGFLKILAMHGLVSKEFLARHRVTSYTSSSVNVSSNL

[4] = DRUGMATRIX: Nicotinic Acetylcholine radioligand binding (ligand: [125I] Epibatidine); type: cell membranes, Membrane; details: imr-32; Not Active = under 50% inhibition at 10 µM
[5] = DRUGMATRIX: Platelet-Derived Growth Factor (PDGF) radioligand binding (ligand: [125I] PDGF); type: cell-based; details: nih3t3; Not Active = under 50% inhibition at 10 µM
[6] = target: Mitogen-activated protein kinase 14 (Homo sapiens, UniProt Q16539); set-up: species or system Escherichia coli
Mitogen-activated protein kinase 14, sequence (Q16539 whole entry): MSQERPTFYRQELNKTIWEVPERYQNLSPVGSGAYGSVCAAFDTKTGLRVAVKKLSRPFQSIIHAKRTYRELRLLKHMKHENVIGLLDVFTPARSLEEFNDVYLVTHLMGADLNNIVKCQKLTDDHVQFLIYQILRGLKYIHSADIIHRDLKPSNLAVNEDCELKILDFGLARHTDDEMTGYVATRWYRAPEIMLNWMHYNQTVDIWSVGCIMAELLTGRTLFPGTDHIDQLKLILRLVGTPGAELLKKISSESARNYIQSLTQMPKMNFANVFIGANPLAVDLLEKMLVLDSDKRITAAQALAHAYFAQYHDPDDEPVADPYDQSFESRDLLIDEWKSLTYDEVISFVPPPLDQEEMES

Vasopressin V1a receptor, sequence (P37288 whole entry): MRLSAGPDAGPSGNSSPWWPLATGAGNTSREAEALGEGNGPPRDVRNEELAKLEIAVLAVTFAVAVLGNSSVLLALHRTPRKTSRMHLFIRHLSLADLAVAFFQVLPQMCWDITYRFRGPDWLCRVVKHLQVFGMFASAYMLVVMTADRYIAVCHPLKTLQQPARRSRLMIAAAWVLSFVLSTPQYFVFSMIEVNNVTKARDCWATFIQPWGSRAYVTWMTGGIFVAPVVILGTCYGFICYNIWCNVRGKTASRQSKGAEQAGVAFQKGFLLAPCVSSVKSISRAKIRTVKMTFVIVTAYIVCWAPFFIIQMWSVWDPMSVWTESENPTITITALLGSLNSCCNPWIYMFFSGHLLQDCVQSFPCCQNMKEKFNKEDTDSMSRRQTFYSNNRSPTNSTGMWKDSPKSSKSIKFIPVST

| Compound | IC50 (Vasopressin V1a receptor) | IC50 (Cannabinoid receptor 1) | IC50 [1] | IC50 [2] | IC50 [3] | IC50 [4] | Ki [4] | IC50 [5] | Ki [5] | IC50 [6] | Ki (Vasopressin V1a receptor) | Ki (Cannabinoid receptor 1) | Ki [1] | Ki [2] | Ki [3] | Ki [6] | IC50 ([6]; read-out: IC50) |
| --- | --- | --- | --- | --- | --- | --- | --- | --- | --- | --- | --- | --- | --- | --- | --- | --- | --- |
| CCOC(=O)C1=C(C)NC(C)=C(C(=O)OC)C1c1cccc(Cl)c1Cl (stereo unspecified) [FELODIPINE] | Not Active | Not Active | Not Active | Not Active | Not Active | Not Active | Not Active | Not Active | Not Active | Not Active | – | – | – | – | – | – | – |
| C[C@H](C(=O)O)c1cccc(C(=O)c2ccccc2)c1 [DEXKETOPROFEN] | Not Active | Not Active | Not Active | Not Active | Not Active | Not Active | Not Active | Not Active | Not Active | Not Active | – | – | – | – | – | – | – |
| Cc1cn[nH]c1 [FOMEPIZOLE] | Not Active | Not Active | Not Active | Not Active | Not Active | Not Active | Not Active | Not Active | Not Active | Not Active | – | – | – | – | – | – | – |
| O=c1cc(-c2ccccc2)oc2ccc3ccccc3c12 [BETA-NAPHTHOFLAVONE] | Not Active | Not Active | Not Active | Not Active | Not Active | Not Active | Not Active | Not Active | Not Active | Not Active | – | – | – | – | – | – | – |
| Cc1c(N(C)CS(=O)(=O)[O-])c(=O)n(-c2ccccc2)n1C.[Na+] [DIPYRONE SODIUM] | Not Active | Not Active | Not Active | Not Active | Not Active | Not Active | Not Active | Not Active | Not Active | Not Active | – | – | – | – | – | – | – |
| CN1C(=O)CN=C(c2ccccc2)c2cc(Cl)ccc21 [DIAZEPAM] | Not Active | Not Active | Not Active | Not Active | Not Active | Not Active | Not Active | Not Active | Not Active | Not Active | – | – | – | – | – | – | – |
| CO[C@H]1[C@@H](O)[C@H](N)[C@@H](O[C@H]2O[C@H]([C@H](C)N)CC[C@H]2N)[C@H](O)[C@@H]1N(C)C(=O)CN [ASTROMICIN] | Not Active | Not Active | Not Active | Not Active | Not Active | Not Active | Not Active | Not Active | Not Active | Not Active | – | – | – | – | – | – | – |
| CCn1cc(C(=O)O)c(=O)c2cc(F)c(N3CCNCC3)nc21 [ENOXACIN] | Not Active | Not Active | Not Active | Not Active | Not Active | Not Active | Not Active | Not Active | Not Active | Not Active | – | – | – | – | – | – | – |
| CCC(=O)O[C@H]1[C@H](O[C@@H]2[C@@H](C)[C@H](O[C@H]3C[C@@](C)(OC)[C@@H](O)[C@H](C)O3)[C@@H](C)C(=O)O[C@H](CC)[C@@](C)(O)[C@H](O)[C@@H](C)C(=O)[C@H](C)C[C@@]2(C)O)O[C@H](C)C[C@@H]1N(C)C [ERYTHROMYCIN PROPIONATE] | Not Active | Not Active | Not Active | Not Active | Not Active | Not Active | Not Active | Not Active | Not Active | Not Active | – | – | – | – | – | – | – |
| COBALT(II) ACETYLACETONATE | Not Active | Not Active | Not Active | Not Active | Not Active | Not Active | Not Active | Not Active | Not Active | Not Active | Not Active | Not Active | Not Active | Not Active | Not Active | Not Active | – |
| N[C@@H](Cc1ccc(F)cc1)C(=O)O | Not Active | Not Active | Not Active | Not Active | Not Active | Not Active | Not Active | Not Active | Not Active | Not Active | – | – | – | – | – | – | – |
| O=C(O)Cc1ccc(-c2ccccc2)cc1 [FELBINAC] | Not Active | Not Active | Not Active | Not Active | Not Active | Not Active | Not Active | Not Active | Not Active | Not Active | – | – | – | – | – | – | – |
| NC[C@H]1O[C@H](O[C@H]2[C@H](O)[C@@H](O[C@H]3O[C@H](CO)[C@@H](O)[C@H](N)[C@H]3O)[C@H](N)C[C@@H]2N)[C@H](O)[C@@H](O)[C@@H]1O [KANAMYCIN] | Not Active | Not Active | Not Active | Not Active | Not Active | Not Active | Not Active | Not Active | Not Active | Not Active | – | – | – | – | – | – | – |
| N=C(N)N/N=C/c1c(Cl)cccc1Cl [GUANABENZ] | Not Active | Not Active | Not Active | Not Active | Not Active | Not Active | Not Active | Not Active | Not Active | Not Active | – | – | – | – | – | – | – |
| C[C@]12CCC(=O)C=C1CC[C@@H]1[C@@H]2[C@@H](O)C[C@@]2(C)[C@H]1CC[C@]2(O)C(=O)CO [HYDROCORTISONE] | Not Active | Not Active | Not Active | Not Active | Not Active | Not Active | Not Active | Not Active | Not Active | Not Active | – | – | – | – | – | – | – |
| Nc1nc(N)nc(NC2CC2)n1 [CYROMAZINE] | Not Active | Not Active | Not Active | Not Active | Not Active | Not Active | Not Active | Not Active | Not Active | Not Active | – | – | – | – | – | – | – |
| OCCO [ETHYLENE GLYCOL] | Not Active | Not Active | Not Active | Not Active | Not Active | Not Active | Not Active | Not Active | Not Active | Not Active | – | – | – | – | – | – | – |
| CCN[C@@H](C)Cc1cccc(C(F)(F)F)c1 [DEXFENFLURAMINE] | Not Active | Not Active | Not Active | Not Active | Not Active | Not Active | Not Active | Not Active | Not Active | Not Active | – | – | – | – | – | – | – |
| C[C@]12C/C(=C/O)C(=O)C[C@@H]1CC[C@@H]1[C@@H]2CC[C@@]2(C)[C@H]1CC[C@]2(C)O [OXYMETHOLONE] | Not Active | Not Active | Not Active | Not Active | Not Active | Not Active | Not Active | Not Active | Not Active | Not Active | – | – | – | – | – | – | – |
| C=C(CC)C(=O)c1ccc(OCC(=O)O)c(Cl)c1Cl [ETHACRYNIC ACID] | Not Active | Not Active | Not Active | Not Active | Not Active | Not Active | Not Active | Not Active | Not Active | Not Active | – | – | – | – | – | – | – |
| CCOC(=O)[C@H](CCc1ccccc1)N[C@@H](C)C(=O)N1Cc2ccccc2C[C@H]1C(=O)O | Not Active | Not Active | Not Active | Not Active | Not Active | Not Active | Not Active | Not Active | Not Active | Not Active | – | – | – | – | – | – | – |
| CCc1oc2ccccc2c1C(=O)c1cc(Br)c(O)c(Br)c1 [BENZBROMARONE] | Not Active | Not Active | Not Active | Not Active | Not Active | Not Active | Not Active | Not Active | Not Active | – | – | – | – | – | – | – | 1240 nM |
| CC[C@H]1OC(=O)[C@H](C)[C@@H](O[C@H]2C[C@@](C)(OC)[C@@H](O)[C@H](C)O2)[C@H](C)[C@@H](O[C@@H]2O[C@H](C)C[C@H](N(C)C)[C@H]2O)[C@](C)(OC)C[C@@H](C)C(=O)[C@H](C)[C@@H](O)[C@]1(C)O [CLARITHROMYCIN] | Not Active | Not Active | Not Active | Not Active | Not Active | Not Active | Not Active | Not Active | Not Active | Not Active | – | – | – | – | – | – | – |
